Experimental data published in ChEMBL document CHEMBL5052856, “Inhibitors of apol1 and methods of using same” (2021).

Columns and labels:
Apolipoprotein L1 = Apolipoprotein L1 (Homo sapiens, UniProt O14791); assay: Inhibition of APOL1 G1 variant in human HEK293-T-REx cells measured by Thallium assay; format: cell-based
[1] = system: Trypanosoma brucei brucei; assay: Antitrypanosomal activity against Trypanosoma brucei brucei assessed as trypanosome lysis using recombinant APOL1 protein G1 variant and measured by Alamar blue based fluoresence assay; format: functional, organism-based

Row | Compound | IC50 (Apolipoprotein L1) [nM] | IC50 [1] [nM]
1 | Cn1cnc(CNC(=O)[C@H]2C[C@H](c3c(-c4ccc(F)cc4)[nH]c4c(F)cc(F)cc43)C2)c1 | < 250 | < 250
2 | COCC1(NC(=O)[C@H]2C[C@H](c3c(-c4ccc(F)cc4)[nH]c4c(F)cc(F)cc43)C2)CC1 | < 250 | < 250
3 | O=C(NCCO)[C@H]1C[C@H](c2c(-c3ccc(F)cc3)[nH]c3c(F)cc(F)cc32)C1 | < 250 | < 250
4 | CC(C)(O)C1CN(C(=O)[C@H]2C[C@H](c3c(-c4ccc(F)cc4)[nH]c4c(F)cc(F)cc43)C2)C1 | > 1000 | > 1000
5 | CC(O)CN(C)C(=O)[C@H]1C[C@H](c2c(-c3ccc(F)cc3)[nH]c3c(F)cc(F)cc32)C1 (some centres not stated) | > 1000 | 250
6 | CC(=O)C1CCCCN1C(=O)[C@H]1C[C@H](c2c(-c3ccc(F)cc3)[nH]c3c(F)cc(F)cc32)C1 (some centres not stated) | > 1000 | 250
7 | CC(C)N1CCN(C(=O)[C@H]2C[C@H](c3c(-c4ccc(F)cc4)[nH]c4c(F)cc(F)cc43)C2)CC1=O | > 1000 | > 1000
8 | O=C(NCC1CC(F)(F)C1)[C@H]1C[C@H](c2c(-c3ccc(F)cc3)[nH]c3c(F)cc(F)cc32)C1 | > 1000 | > 1000
9 | O=C1CC(NC(=O)[C@H]2C[C@H](c3c(-c4ccc(F)cc4)[nH]c4c(F)cc(F)cc43)C2)CN1 (some centres not stated) | > 1000 | > 1000
10 | CN(CC(C)(C)O)C(=O)[C@H]1C[C@H](c2c(-c3ccc(F)cc3)[nH]c3c(F)cc(F)cc32)C1 | > 1000 | > 1000
11 | O=C(NC(CO)CF)[C@H]1C[C@H](c2c(-c3ccc(F)cc3)[nH]c3c(F)cc(F)cc32)C1 (some centres not stated) | < 250 | < 250
12 | O=C(NCc1ccn[nH]1)[C@H]1C[C@H](c2c(-c3ccc(F)cc3)[nH]c3c(F)cc(F)cc32)C1 | 0.25 | 250
13 | CC(N)(C(=O)NC(=O)[C@H]1C[C@H](c2c(-c3ccc(F)cc3)[nH]c3c(F)cc(F)cc32)C1)C(F)(F)F (some centres not stated) | > 1000 | 250
14 | CN(CCO)C(=O)[C@H]1C[C@H](c2c(-c3ccc(F)cc3)[nH]c3c(F)cc(F)cc32)C1 | < 250 | < 250
15 | O=C([C@H]1C[C@H](c2c(-c3ccc(F)cc3)[nH]c3c(F)cc(F)cc32)C1)N(CCO)C1CC1 | < 250 | 250
16 | O=C([C@H]1C[C@H](c2c(-c3ccc(F)cc3)[nH]c3c(F)cc(F)cc32)C1)N1CCC(O)(CO)CC1 | > 1000 | > 1000
17 | COCC1(CNC(=O)[C@H]2C[C@H](c3c(-c4ccc(F)cc4)[nH]c4c(F)cc(F)cc43)C2)CC1 | > 1000 | > 1000
18 | Cn1ccc(CNC(=O)[C@H]2C[C@H](c3c(-c4ccc(F)cc4)[nH]c4c(F)cc(F)cc43)C2)n1 | 0.25 | < 250
19 | O=C(CNC(=O)[C@H]1C[C@H](c2c(-c3ccc(F)cc3)[nH]c3c(F)cc(F)cc32)C1)NC1CC1 | > 1000 | > 1000

Row | Compound | IC50 (Apolipoprotein L1) [nM] | IC50 [1] [nM]
20 | O=C(NCCn1cnnc1)[C@H]1C[C@H](c2c(-c3ccc(F)cc3)[nH]c3c(F)cc(F)cc32)C1 | > 1000 | > 1000
21 | Cc1cc(CNC(=O)[C@H]2C[C@H](c3c(-c4ccc(F)cc4)[nH]c4c(F)cc(F)cc43)C2)nn1C | > 1000 | 250
22 | C[C@H](NC(=O)[C@H]1C[C@H](c2c(-c3ccc(F)cc3)[nH]c3c(F)cc(F)cc32)C1)C(=O)N(C)C | 0.25 | 250
23 | NC(=O)C1(NC(=O)[C@H]2C[C@H](c3c(-c4ccc(F)cc4)[nH]c4c(F)cc(F)cc43)C2)CC1 | 0.25 | 250
24 | CN(C(=O)[C@H]1C[C@H](c2c(-c3ccc(F)cc3)[nH]c3c(F)cc(F)cc32)C1)C1(CO)CC1 | 0.25 | 250
25 | O=C([C@H]1C[C@H](c2c(-c3ccc(F)cc3)[nH]c3c(F)cc(F)cc32)C1)N1C[C@@H](CO)OCC12CC2 | > 1000 | > 1000
26 | O=C(NCC1(O)CCCCC1)[C@H]1C[C@H](c2c(-c3ccc(F)cc3)[nH]c3c(F)cc(F)cc32)C1 | > 1000 | > 1000
27 | Cc1cc(CNC(=O)[C@H]2C[C@H](c3c(-c4ccc(F)cc4)[nH]c4c(F)cc(F)cc43)C2)on1 | > 1000 | 250
28 | CN(C)C(=O)CN(C)C(=O)[C@H]1C[C@H](c2c(-c3ccc(F)cc3)[nH]c3c(F)cc(F)cc32)C1 | 0.25 | > 1000
29 | O=C(NCC1(O)CCCC1)[C@H]1C[C@H](c2c(-c3ccc(F)cc3)[nH]c3c(F)cc(F)cc32)C1 | > 1000 | > 1000
30 | O=C(NCC1(O)CCC1)[C@H]1C[C@H](c2c(-c3ccc(F)cc3)[nH]c3c(F)cc(F)cc32)C1 | > 1000 | > 1000
31 | O=C([C@H]1C[C@H](c2c(-c3ccc(F)cc3)[nH]c3c(F)cc(F)cc32)C1)N1CCCCC1CCO (some centres not stated) | > 1000 | > 1000
32 | CN1CC(CNC(=O)[C@H]2C[C@H](c3c(-c4ccc(F)cc4)[nH]c4c(F)cc(F)cc43)C2)CC1=O (some centres not stated) | > 1000 | > 1000
33 | O=C(NC1(CCO)CC1)[C@H]1C[C@H](c2c(-c3ccc(F)cc3)[nH]c3c(F)cc(F)cc32)C1 | 0.25 | 250
34 | O=C1NCC[C@H]1NC(=O)[C@H]1C[C@H](c2c(-c3ccc(F)cc3)[nH]c3c(F)cc(F)cc32)C1 | 0.25 | < 250
35 | CN(CC1(CO)CC1)C(=O)[C@H]1C[C@H](c2c(-c3ccc(F)cc3)[nH]c3c(F)cc(F)cc32)C1 | > 1000 | > 1000
36 | CCNC(=O)[C@@H]1CCCN1C(=O)[C@H]1C[C@H](c2c(-c3ccc(F)cc3)[nH]c3c(F)cc(F)cc32)C1 | > 1000 | > 1000
37 | C[C@@H](NC(=O)[C@H]1C[C@H](c2c(-c3ccc(F)cc3)[nH]c3c(F)cc(F)cc32)C1)C(=O)N(C)C | > 1000 | > 1000
38 | CC(C)(NC(=O)[C@H]1C[C@H](c2c(-c3ccc(F)cc3)[nH]c3c(F)cc(F)cc32)C1)C(=O)N1CCOCC1 | > 1000 | > 1000

Row | Compound | IC50 (Apolipoprotein L1) [nM] | IC50 [1] [nM]
39 | O=C(NCC1CCOCC1)[C@H]1C[C@H](c2c(-c3ccc(F)cc3)[nH]c3c(F)cc(F)cc32)C1 | > 1000 | > 1000
40 | CC(=O)NC1CCCN(C(=O)[C@H]2C[C@H](c3c(-c4ccc(F)cc4)[nH]c4c(F)cc(F)cc43)C2)C1 (some centres not stated) | > 1000 | > 1000
41 | CC(NC(=O)[C@H]1C[C@H](c2c(-c3ccc(F)cc3)[nH]c3c(F)cc(F)cc32)C1)c1ccnn1C (some centres not stated) | > 1000 | > 1000
42 | CCOCC1(CNC(=O)[C@H]2C[C@H](c3c(-c4ccc(F)cc4)[nH]c4c(F)cc(F)cc43)C2)CC1 | > 1000 | > 1000
43 | CN1CCN(C(=O)CNC(=O)[C@H]2C[C@H](c3c(-c4ccc(F)cc4)[nH]c4c(F)cc(F)cc43)C2)CC1 | > 1000 | > 1000
44 | NC(=O)[C@@H]1CCCN1C(=O)[C@H]1C[C@H](c2c(-c3ccc(F)cc3)[nH]c3c(F)cc(F)cc32)C1 | > 1000 | > 1000
45 | CS(=O)(=O)CCNC(=O)[C@H]1C[C@H](c2c(-c3ccc(F)cc3)[nH]c3c(F)cc(F)cc32)C1 | < 250 | > 1000
46 | CC1CC(NC(=O)[C@H]2C[C@H](c3c(-c4ccc(F)cc4)[nH]c4c(F)cc(F)cc43)C2)C(=O)N1 (some centres not stated) | > 1000 | 250
47 | O=C(NC1(CO)CC1)[C@H]1C[C@H](c2c(-c3ccc(F)cc3)[nH]c3c(F)cc(F)cc32)C1 | 0.25 | < 250
48 | Cn1cc(CNC(=O)[C@H]2C[C@H](c3c(-c4ccc(F)cc4)[nH]c4c(F)cc(F)cc43)C2)cn1 | > 1000 | 250
49 | O=C(NCC1(CO)COC1)[C@H]1C[C@H](c2c(-c3ccc(F)cc3)[nH]c3c(F)cc(F)cc32)C1 | > 1000 | > 1000
50 | CC(NC(=O)[C@H]1C[C@H](c2c(-c3ccc(F)cc3)[nH]c3c(F)cc(F)cc32)C1)C(N)=O (some centres not stated) | 0.25 | 250
51 | CC1(O)CN(C(=O)[C@H]2C[C@H](c3c(-c4ccc(F)cc4)[nH]c4c(F)cc(F)cc43)C2)C1 | 0.25 | 250
52 | CC(NC(=O)[C@H]1C[C@H](c2c(-c3ccc(F)cc3)[nH]c3c(F)cc(F)cc32)C1)c1ccn(C)n1 (some centres not stated) | 0.25 | < 250
53 | COCc1cc(CNC(=O)[C@H]2C[C@H](c3c(-c4ccc(F)cc4)[nH]c4c(F)cc(F)cc43)C2)n[nH]1 | > 1000 | > 1000
54 | O=C([C@H]1C[C@H](c2c(-c3ccc(F)cc3)[nH]c3c(F)cc(F)cc32)C1)N1CC[C@H](CO)C1 | > 1000 | > 1000
55 | CN(CC(N)=O)C(=O)[C@H]1C[C@H](c2c(-c3ccc(F)cc3)[nH]c3c(F)cc(F)cc32)C1 | 0.25 | 250
56 | C[C@H](O)CNC(=O)[C@H]1C[C@H](c2c(-c3ccc(F)cc3)[nH]c3c(F)cc(F)cc32)C1 | 0.25 | 250
